Experimental findings from PubChem BioAssay (NCI) are described below.

Holding throughout (assay): NCI anticancer screen, dose series, 48 h
Assay [1] relates to CCRF-CEM leukemia.
The test system of assay [2] is HT29 colon.
For assay [3], the system named is OVCAR-4 ovarian.
Assay [4] relates to OVCAR-5 ovarian.
Assay [5] deals with HCC-2998 colon.
Assay [6] deals with MOLT-4 leukemia.
The subject of assay [7] is SK-MEL-2 melanoma.
Assay [8] has as its system HOP-92 NSCLC.

Several values for one entry are separate records, joined by “and”; a condition that tells them apart may be missing. Identical values can stand only once.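 96-well plates; 48 h exposure; 5 concentrations. Endpoints by linear interpolation between flanking doses. Not reached: highest tested concentration assigned. At the GI50, growth is halved. TGI: concentration producing complete growth inhibition.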 Some results are limits rather than exact numbers.

As for `Cc1cc2nc3ccc(N=Nc4ccc(N(C)C)cc4)cc3n(-c3ccccc3)c-2cc1=N`, the GI50 is 0.00858 µM and 0.0162 µM in assay [1]; 0.0497 µM in assay [2]; 0.0116 µM and 0.0415 µM in assay [3]; 0.0486 µM in assay [4]; 0.0431 µM in assay [5]; 0.0146 µM in assay [6]. Besides, the GI50 was 0.058 µM in assay [7] and 0.0325 µM in assay [8]. Also, the TGI in assay [1] was 0.203 µM and 0.141 µM; in assay [2], 1.15 µM; in assay [3], 0.12 µM and 0.802 µM; in assay [4], 1.55 µM; in assay [5] it was 1.6 µM; in assay [6], 1.92 µM. The figures for the TGI in assay [7] and in assay [8] were 0.317 µM and 0.386 µM, respectively.

Take `COC(=O)C1CC2(c3ccc(C)cc3)C(c3ccc(C)cc3)=C(c3ccc(C)cc3)C1(c1ccc(C)cc1)S2=O` (stereo not given): the GI50 is 41.4 µM in assay [2]; 22.5 µM in assay [3]; over 100 µM in assay [4]; over 100 µM in assay [5]; over 100 µM in assay [6]; over 100 µM in assay [7]. Further, the TGI was over 100 µM in assay [2]; 81.2 µM in assay [3]; over 100 µM in assay [4]; over 100 µM in assay [5]; over 100 µM in assay [6]; over 100 µM in assay [7].

As for `COC(=O)c1[nH]nc(-c2ccccc2)c1N1CCCCC1`, the GI50 in assay [1] was 72.9 µM; in assay [2], 57.9 µM; in assay [3], 86.7 µM; in assay [4], 51.7 µM; in assay [6], 62.6 µM; in assay [7], over 100 µM. Further, the GI50 in assay [8] was 19 µM. The TGI in assay [1], in assay [2], in assay [3], in assay [4], in assay [6] and in assay [7] was over 100 µM each time. The molecule also yielded a TGI in assay [8] of 64 µM.

For `NC1=CC(=O)C(=O)c2cccnc21`, the GI50 was 3.16 µM in assay [1]; 15.1 µM in assay [2]; 2.59 µM in assay [3]; 17.8 µM in assay [4]; 14.7 µM in assay [5]; 3.15 µM in assay [6]. The GI50 in assay [7] is 3.85 µM. The TGI in assay [1] worked out at 10.5 µM; in assay [2] it was 38.7 µM; in assay [3], 8.15 µM; in assay [4], 34.3 µM; in assay [5], 28.4 µM; in assay [6] it was 8.41 µM. For the same molecule, the TGI in assay [7] came out at 15.6 µM.

Regarding `CC(C)[C@@H](C(=O)O[C@@H]1/C=C/C(=O)O[C@@H](C)CCC/C=C/[C@@H]2C[C@H](O)C[C@H]21)[N+](C)(C)C`, the GI50 in assay [1], in assay [2], in assay [3], in assay [4], in assay [5] and in assay [6] was over 100 µM in each case. The GI50 in assay [7] was over 100 µM. Besides, the TGI in assay [1], in assay [2], in assay [3], in assay [4], in assay [5] and in assay [6] was over 100 µM each time. The molecule also had a TGI in assay [7] of over 100 µM.

With `CC12C=CC(C)(O1)C1C2c2ccccc2S1(=O)=O` (stereo not given), the GI50 is 28.2 µM in assay [1]; over 100 µM in assay [2]; 31.6 µM in assay [3]; over 100 µM in assay [4]; over 100 µM in assay [5]; 62.7 µM in assay [6]. Moreover, in assay [8], the GI50 is 58.6 µM. Further, the TGI in assay [1], in assay [2], in assay [3], in assay [4], in assay [5] and in assay [6] was over 100 µM in each case. In assay [8], this molecule had a TGI of over 100 µM.

Regarding `COc1cc2c(cc1OCCCCCCNC(=O)c1cc3ccccc3[nH]1)N=CC1CCCN1C2=O` (stereo not given), the GI50 in assay [1] is 27.3 µM; in assay [2] it was 41.8 µM; in assay [3], 89.4 µM; in assay [4], over 100 µM; in assay [5], 35.8 µM; in assay [6] it was 31.6 µM. Further, the GI50 in assay [8] was 25.3 µM. The TGI in assay [1], in assay [2], in assay [3], in assay [4], in assay [5] and in assay [6] was over 100 µM in each case. Further, the TGI in assay [8] is over 100 µM.

Regarding `NC(=O)Nc1ccc2ncnc(Nc3ccc(Cl)cc3)c2c1`, the GI50 in assay [1] was 20.3 µM; in assay [2], 25.3 µM; in assay [3], 11.8 µM; in assay [4], 15.8 µM; in assay [5], 33.5 µM; in assay [6] it was 21.4 µM. Besides, the GI50 in assay [7] was 18.5 µM. The TGI in assay [1] was over 100 µM; in assay [2], over 100 µM; in assay [3], over 100 µM; in assay [4], over 95 µM; in assay [5], over 100 µM; in assay [6], 84.7 µM. The same molecule came in with a TGI in assay [7] of 46.7 µM.

For the molecule `Cc1c(N2C(=O)/C(=C\c3ccc(O)cc3)N=C2c2ccccc2)c(=O)n(-c2ccccc2)n1C`, the GI50 in assay [2], in assay [3], in assay [4], in assay [5], in assay [6] and in assay [7] was over 100 µM each time. In assay [8], the GI50 was over 100 µM. For the same molecule, the TGI in assay [2], in assay [3], in assay [4], in assay [5], in assay [6] and in assay [7] was over 100 µM in each case. In assay [8], this molecule had a TGI of over 100 µM.

Consider `BrP(NC1CCCCCC1)(c1ccccc1)(c1ccccc1)c1ccccc1`, for which the TGI in assay [1] came out at 29 µM; in assay [2] it was 4.66 µM; in assay [4], 52.7 µM; in assay [5] it was 6.49 µM; in assay [7], 8.53 µM.

In the case of `COc1ccc(/C=C/c2nc(N3CCOCC3)c3cc(F)c(F)cc3n2)cc1OC`, the GI50 is 4.7 µM in assay [1]; 1.43 µM in assay [3]; 6.54 µM in assay [4]; 7.49 µM in assay [5]; 4.11 µM in assay [6]; 9.48 µM in assay [7]. Moreover, the GI50 in assay [8] was 4.13 µM. Further, the TGI in assay [1], in assay [3], in assay [4], in assay [5], in assay [6] and in assay [7] was over 100 µM in each case. In assay [8], this molecule displayed a TGI of 87.2 µM.

Take `Cn1cc(-c2csc(-c3cn(CCN4CCOCC4)c4ccc(F)cc34)n2)c2cccnc21`: the GI50 was 3.07 µM in assay [1]; 2.85 µM in assay [2]; 4.59 µM in assay [4]; 3.42 µM in assay [5]; 1.79 µM in assay [6]; 2.53 µM in assay [7]. The GI50 in assay [8] was 2.39 µM. The TGI is 9.18 µM in assay [1]; 17.7 µM in assay [2]; over 100 µM in assay [4]; 16.4 µM in assay [5]; 4.46 µM in assay [6]; 7.28 µM in assay [7]. Moreover, the TGI in assay [8] turned out to be 9.12 µM.

In the case of `O=S(=O)(NC(=S)Nc1ccccc1)c1ccc(N2N=C3c4ccccc4CC3C2c2ccc(Cl)cc2)cc1` (stereo not given), the GI50 is 19.7 µM in assay [1]; 41.6 µM in assay [2]; 42.2 µM in assay [3]; 15.9 µM in assay [6]; 23.4 µM in assay [7]; 18.1 µM in assay [8]. Besides, the TGI in assay [1] was 57.5 µM; in assay [2], over 100 µM; in assay [3], over 100 µM; in assay [6], 39.3 µM; in assay [7], 47.9 µM; in assay [8], 40.2 µM.

Regarding `Cc1sc2nc(-c3ccccn3)c(/C=N/N=C(N)N)n2c1C`, the GI50 was 6.02 µM in assay [1]; 5.68 µM in assay [2]; 5.15 µM in assay [3]; 7.67 µM in assay [4]; 10.2 µM in assay [6]; 7.99 µM in assay [7]. Moreover, in assay [8], the GI50 was 7.55 µM. In addition, the TGI is 19 µM in assay [1]; over 17.4 µM in assay [2]; 13.3 µM in assay [3]; 16.2 µM in assay [4]; over 27.5 µM in assay [6]; 21.4 µM in assay [7]. In addition, in assay [8], the TGI worked out at 15.8 µM.

On to `CSc1nc(Cl)c(Br)c(Nc2c[nH]c(=O)[nH]c2=O)n1`, for which the TGI in assay [1] is 49 µM; in assay [2], 29.4 µM; in assay [3] it was 37.9 µM; in assay [5] it was 42.2 µM; in assay [6], 43.6 µM; in assay [7], 44.4 µM. The same molecule showed a TGI in assay [8] of 31.8 µM.

Consider `N/C(=N\OC(=O)NC(Cl)=C(Cl)Cl)c1cc(C(F)(F)F)cc(C(F)(F)F)c1`, for which the TGI is 32.2 µM in assay [1]; 34.4 µM in assay [2]; 38.3 µM in assay [4]; 25.8 µM in assay [5]; 29.6 µM in assay [6]; 35.1 µM in assay [8].

For the molecule `O=C(CCCn1ccnc1[N+](=O)[O-])NCCn1cnc([N+](=O)[O-])c1`, the TGI in assay [1], in assay [2], in assay [3], in assay [4], in assay [5] and in assay [6] was over 100 µM in each case. For the same molecule, in assay [7], the TGI was over 100 µM.
